Numbered stars: 1 amine (or outer) side, 2 acyl side, 3 side chain; on linkers, the order of the positions; unused ones are H or OH. Bridge positions count the residues as written; N and C are the ends. Square brackets hold non-standard residues; d marks the D form. Peptide text beside a SMILES is read from it. * marks the point of attachment. C20 diacid = O=C(O)CCCCCCCCCCCCCCCCCCC(=O)*; γGlu = O=C(O)[C@H](CCC(=O)[*:2])N[*:1]; NMeI = CC[C@H](C)[C@H](NC)C(=O)O; NMeA = CN[C@@H](C)C(=O)O; Sar = CNCC(=O)O
Columns and labels:
[1] = molecular target: T1, human amylin receptor 3 (hAMYR3) consisting of hCTR2 co-expressed with human Receptor Activity Modifying Protein 3 (hRAMP3) (Homo sapiens, UniProt O60896+P30988); test: hAMYR3 assay: induction of cAMP (AlphaScreen cAMP Assay kit) in COS7 cells expressing hAMYR3; assay type: cell-based
T1 construct: expressed in transfected cells
T1 sequence (P30988 25-474): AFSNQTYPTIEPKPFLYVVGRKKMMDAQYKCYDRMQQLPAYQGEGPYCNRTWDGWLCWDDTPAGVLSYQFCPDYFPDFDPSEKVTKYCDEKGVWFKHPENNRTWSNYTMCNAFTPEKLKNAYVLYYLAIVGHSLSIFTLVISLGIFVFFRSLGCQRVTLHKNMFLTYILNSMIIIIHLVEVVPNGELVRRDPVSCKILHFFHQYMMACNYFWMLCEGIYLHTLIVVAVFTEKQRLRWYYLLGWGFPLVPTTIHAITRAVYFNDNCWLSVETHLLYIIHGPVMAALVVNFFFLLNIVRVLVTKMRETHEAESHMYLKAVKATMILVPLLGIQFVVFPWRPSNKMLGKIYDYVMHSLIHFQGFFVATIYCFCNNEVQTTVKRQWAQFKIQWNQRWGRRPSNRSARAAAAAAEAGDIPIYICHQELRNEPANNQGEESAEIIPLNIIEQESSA
T1 sequence (O60896 24-148 partner): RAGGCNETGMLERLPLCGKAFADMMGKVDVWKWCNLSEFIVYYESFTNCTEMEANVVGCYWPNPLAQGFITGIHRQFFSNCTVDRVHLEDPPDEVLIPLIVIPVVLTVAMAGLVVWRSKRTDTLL
In short: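 Stable COS7 clone co-expressing hCTR2 and hRAMP3, stimulated 15 min at 37° C with increasing peptide in Tyrode buffer pH 7.4 with 100 µM IBMX and 0.1% casein. cAMP measured by AlphaScreen after lysis; EC50 and % efficacy versus pramlintide from 4PL fit.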

[2] = Solubility assessment (turbidity absorbance at 325 nm); assay type: physicochemical; conditions: stock 2 mg/ml diluted 1:1, ambient temperature (typically 25°C), n=1; for Solubility, Acetate buffer pH 4: 100 mM acetate buffer pH 4.0; for Solubility, Acetate buffer pH 5: 100 mM acetate buffer pH 5.0; for Solubility, Histidine buffer pH 6: 100 mM histidine buffer pH 6.0; for Solubility, Histidine buffer pH 7: 100 mM histidine buffer pH 7.0; for Solubility, Phosphate buffer pH 6: 100 mM phosphate buffer pH 6.0; for Solubility, Phosphate buffer pH 7: 100 mM phosphate buffer pH 7.0; for Solubility, Phosphate buffer pH 7.5: 100 mM phosphate buffer pH7.5
In short: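 Peptide stock (2 mg/ml, water pH 2.5) diluted 1:1 into 100 mM acetate (pH 4.0, 5.0), histidine (pH 6.0, 7.0) or phosphate (pH 6.0–7.5) buffer; absorbance at 325 nm read at about 25°C, n=1. A325 ≤ 0.02 taken as solubility ≥ 1 mg/ml.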

[3] = molecular target: T2, human calcitonin receptor (hCTR2) (Homo sapiens, UniProt P30988); test: hCTR2 assay: induction of cAMP (AlphaScreen cAMP Assay kit) in COS7 cells expressing hCTR2; assay type: cell-based
T2 construct: expressed in transfected cells
T2 sequence (P30988 25-474): T1 sequence (P30988 25-474)
In short: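 COS7 stable hCTR2 clone (RAMP-free); peptide dose-response 15 min 37° C in Tyrode pH 7.4 + 100 µM IBMX + 0.1% casein; lysis 10 min RT; AlphaScreen cAMP; 4PL fit.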

SMILES	EC50 [1] [nM]	Solubility, Acetate buffer pH 4 [2]	Solubility, Acetate buffer pH 5 [2]	Solubility, Histidine buffer pH 6 [2]	Solubility, Histidine buffer pH 7 [2]	Solubility, Phosphate buffer pH 6 [2]	Solubility, Phosphate buffer pH 7 [2]	Solubility, Phosphate buffer pH 7.5 [2]	EC50 [3] [nM]
CC[C@H](C)[C@@H](C(=O)N[C@@H](CC(C)C)C(=O)N[C@@H](CO)C(=O)N[C@@H](CO)C(=O)N[C@H](C(=O)N[C@@H](CC(N)=O)C(=O)N[C@H](C(=O)NCC(=O)N[C@@H](CO)C(=O)N[C@@H](CC(N)=O)C(=O)N[C@H](C(=O)N(C)CC(N)=O)[C@@H](C)O)C(C)C)[C@@H](C)O)N(C)C(=O)[C@H](C)NC(=O)CN(C)C(=O)[C@H](Cc1ccccc1)NC(=O)[C@H](CC(N)=O)NC(=O)[C@H](CC(N)=O)NC(=O)[C@H](CO)NC(=O)[C@H](CO)NC(=O)[C@H](CCCNC(=N)N)NC(=O)[C@H](Cc1c[nH]cn1)NC(=O)[C@H](CC(C)C)NC(=O)[C@H](Cc1ccccc1)NC(=O)[C@H](CCC(=O)O)NC(=O)[C@H](C)NC(=O)[C@H](CC(C)C)NC(=O)[C@H](CCCNC(=N)N)NC(=O)[C@H](CCC(N)=O)NC(=O)[C@@H](NC(=O)[C@H](C)NC(=O)[C@@H]1CSSC[C@H](NC(=O)[C@H](CCCNC(=N)N)NC(=O)CC[C@H](NC(=O)CCCCCCCCCCCCCCCCCCC(=O)O)C(=O)O)C(=O)N[C@@H](CC(N)=O)C(=O)N[C@@H]([C@@H](C)O)C(=O)N[C@@H](C)C(=O)N[C@@H]([C@@H](C)O)C(=O)N1)[C@@H](C)O [Compound 101, [19CD]-isoGlu-RC()NTATC()ATQRLAEFLHRSSNNF-Gly(Me)-A-Ile(Me)-LSSTNVGSNT-Gly(Me)-NH2] ({C20 diacid-γGlu}-RCNTATCATQRLAEFLHRSSNNF[Sar]A[NMeI]LSSTNVGSNT[Sar]-NH2; disulfide 2-7)	2.7	SS (SS indicates solubility ≥ 1mg/ml)	SS (SS indicates solubility ≥ 1mg/ml)	SS (SS indicates solubility ≥ 1mg/ml)	SS (SS indicates solubility ≥ 1mg/ml)	II (II indicates solubility ≤ 1 mg/ml)	SS (SS indicates solubility ≥ 1mg/ml)	SS (SS indicates solubility ≥ 1mg/ml)	0.6
CC[C@H](C)[C@@H](C(=O)N[C@@H](CC(C)C)C(=O)N[C@@H](CO)C(=O)N[C@@H](CO)C(=O)N[C@H](C(=O)N[C@@H](CC(N)=O)C(=O)N[C@H](C(=O)NCC(=O)N[C@@H](CO)C(=O)N[C@@H](CC(N)=O)C(=O)N[C@H](C(=O)N(C)[C@@H](C)C(N)=O)[C@@H](C)O)C(C)C)[C@@H](C)O)N(C)C(=O)[C@H](C)NC(=O)CN(C)C(=O)[C@H](Cc1ccccc1)NC(=O)[C@H](CC(N)=O)NC(=O)[C@H](CC(N)=O)NC(=O)[C@H](CO)NC(=O)[C@H](CO)NC(=O)[C@H](CCCNC(=N)N)NC(=O)[C@H](Cc1c[nH]cn1)NC(=O)[C@H](CC(C)C)NC(=O)[C@H](Cc1ccccc1)NC(=O)[C@H](CCC(=O)O)NC(=O)[C@H](C)NC(=O)[C@H](CC(C)C)NC(=O)[C@H](CCCNC(=N)N)NC(=O)[C@H](CCC(N)=O)NC(=O)[C@@H](NC(=O)[C@H](C)NC(=O)[C@@H]1CSSC[C@H](NC(=O)[C@H](CCCNC(=N)N)NC(=O)CC[C@H](NC(=O)CCCCCCCCCCCCCCCCCCC(=O)O)C(=O)O)C(=O)N[C@@H](CC(N)=O)C(=O)N[C@@H]([C@@H](C)O)C(=O)N[C@@H](C)C(=O)N[C@@H]([C@@H](C)O)C(=O)N1)[C@@H](C)O [Compound 102, [19CD]-isoGlu-RC()NTATC()ATQRLAEFLHRSSNNF-Gly(Me)-A-Ile(Me)-LSSTNVGSNT-Ala(Me)-NH2] ({C20 diacid-γGlu}-RCNTATCATQRLAEFLHRSSNNF[Sar]A[NMeI]LSSTNVGSNT[NMeA]-NH2; disulfide 2-7)	1	SS (SS indicates solubility ≥ 1mg/ml)	II (II indicates solubility ≤ 1 mg/ml)	SS (SS indicates solubility ≥ 1mg/ml)	SS (SS indicates solubility ≥ 1mg/ml)	II (II indicates solubility ≤ 1 mg/ml)	SS (SS indicates solubility ≥ 1mg/ml)	SS (SS indicates solubility ≥ 1mg/ml)	0.42
CC[C@H](C)[C@@H](C(=O)N[C@@H](CC(C)C)C(=O)N[C@@H](CO)C(=O)N[C@@H](CO)C(=O)N[C@H](C(=O)N[C@@H](CC(N)=O)C(=O)N[C@H](C(=O)NCC(=O)N[C@@H](CO)C(=O)N[C@@H](CC(N)=O)C(=O)N[C@H](C(=O)N(C)[C@H](C(N)=O)[C@@H](C)CC)[C@@H](C)O)C(C)C)[C@@H](C)O)N(C)C(=O)[C@H](C)NC(=O)CN(C)C(=O)[C@H](Cc1ccccc1)NC(=O)[C@H](CC(N)=O)NC(=O)[C@H](CC(N)=O)NC(=O)[C@H](CO)NC(=O)[C@H](CO)NC(=O)[C@H](CCCNC(=N)N)NC(=O)[C@H](Cc1c[nH]cn1)NC(=O)[C@H](CC(C)C)NC(=O)[C@H](Cc1ccccc1)NC(=O)[C@H](CCC(=O)O)NC(=O)[C@H](C)NC(=O)[C@H](CC(C)C)NC(=O)[C@H](CCCNC(=N)N)NC(=O)[C@H](CCC(N)=O)NC(=O)[C@@H](NC(=O)[C@H](C)NC(=O)[C@@H]1CSSC[C@H](NC(=O)[C@H](CCCNC(=N)N)NC(=O)CC[C@H](NC(=O)CCCCCCCCCCCCCCCCCCC(=O)O)C(=O)O)C(=O)N[C@@H](CC(N)=O)C(=O)N[C@@H]([C@@H](C)O)C(=O)N[C@@H](C)C(=O)N[C@@H]([C@@H](C)O)C(=O)N1)[C@@H](C)O [Compound 103, [19CD]-isoGlu-RC()NTATC()ATQRLAEFLHRSSNNF-Gly(Me)-A-Ile(Me)-LSSTNVGSNT-Ile(Me)-NH2H2] ({C20 diacid-γGlu}-RCNTATCATQRLAEFLHRSSNNF[Sar]A[NMeI]LSSTNVGSNT[NMeI]-NH2; disulfide 2-7)	5.1	SS (SS indicates solubility ≥ 1mg/ml)	SS (SS indicates solubility ≥ 1mg/ml)	SS (SS indicates solubility ≥ 1mg/ml)	SS (SS indicates solubility ≥ 1mg/ml)	II (II indicates solubility ≤ 1 mg/ml)	SS (SS indicates solubility ≥ 1mg/ml)	SS (SS indicates solubility ≥ 1mg/ml)	0.65
CC[C@H](C)[C@@H](C(=O)N[C@@H](CC(C)C)C(=O)N[C@@H](CO)C(=O)N[C@@H](CO)C(=O)N[C@H](C(=O)N[C@@H](CC(N)=O)C(=O)N[C@H](C(=O)NCC(=O)N[C@@H](CO)C(=O)N[C@@H](CC(N)=O)C(=O)N[C@H](C(=O)N1CCC[C@@H]1C(N)=O)[C@@H](C)O)C(C)C)[C@@H](C)O)N(C)C(=O)[C@H](C)NC(=O)CN(C)C(=O)[C@H](Cc1ccccc1)NC(=O)[C@H](CC(N)=O)NC(=O)[C@H](CC(N)=O)NC(=O)[C@H](CO)NC(=O)[C@H](CO)NC(=O)[C@H](CCCNC(=N)N)NC(=O)[C@H](Cc1c[nH]cn1)NC(=O)[C@H](CC(C)C)NC(=O)[C@H](Cc1ccccc1)NC(=O)[C@H](CCC(=O)O)NC(=O)[C@H](C)NC(=O)[C@H](CC(C)C)NC(=O)[C@H](CCCNC(=N)N)NC(=O)[C@H](CCC(N)=O)NC(=O)[C@@H](NC(=O)[C@H](C)NC(=O)[C@@H]1CSSC[C@H](NC(=O)[C@H](CCCNC(=N)N)NC(=O)CC[C@H](NC(=O)CCCCCCCCCCCCCCCCCCC(=O)O)C(=O)O)C(=O)N[C@@H](CC(N)=O)C(=O)N[C@@H]([C@@H](C)O)C(=O)N[C@@H](C)C(=O)N[C@@H]([C@@H](C)O)C(=O)N1)[C@@H](C)O [Compound 104, [19CD]-isoGlu-RC()NTATC()ATQRLAEFLHRSSNNF-Gly(Me)-A-Ile(Me)-LSSTNVGSNT-DPro-NH2] ({C20 diacid-γGlu}-RCNTATCATQRLAEFLHRSSNNF[Sar]A[NMeI]LSSTNVGSNT[dP]-NH2; disulfide 2-7)	4.8	SS (SS indicates solubility ≥ 1mg/ml)	SS (SS indicates solubility ≥ 1mg/ml)	SS (SS indicates solubility ≥ 1mg/ml)	SS (SS indicates solubility ≥ 1mg/ml)	II (II indicates solubility ≤ 1 mg/ml)	SS (SS indicates solubility ≥ 1mg/ml)	SS (SS indicates solubility ≥ 1mg/ml)	0.7
